How the values were obtained:
Cbl-b = Cbl-b (Homo sapiens, UniProt Q13191); experiment: Cbl-b inhibition assay (Cbl-b activity assay, FRET, Biological Example 1; 100 mM NaCl, 60 nM Src kinase); type: biochemical; settings: upper bound stated in text lists; read-out: IC50 values in the Cbl-b inhibition assay of Biological Example 1
Method in brief: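 Inhibitor activity is measured as reduced terbium-to-fluorescein FRET between streptavidin-terbium on biotinylated Cbl-b and Bodipy-fluorescein ubiquitin carried by an irreversible UbcH5B-Ub conjugate, binding of which depends on Src phosphorylation of Cbl-b.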

T-cell [1] = experiment: CD25 cell surface staining on T-cells co-stimulated with anti-CD3 and anti-CD28 antibody (Biological Example 2); type: cell-based, human; settings: Homo sapiens, T-cell, fold change over baseline, primary human total T-cells, read-out: CD25 staining Anti-CD3/Anti-CD28 stimulation; for fold induction at 0.3 µM: 0.3 μM Cbl-b inhibitor; for fold induction at 1 µM: 1 μM Cbl-b inhibitor; for fold induction at 4 µM: 4 μM Cbl-b inhibitor
Method in brief: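 No assay protocol given; T-cells stimulated with anti-CD3 alone or anti-CD3 plus anti-CD28, with or without Cbl-b inhibitor. Activation read as IL-2 secretion or CD25 surface staining, expressed as fold over baseline from uninhibited cells […].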

T-cell [2] = experiment: IL-2 secretion from T-cells stimulated with anti-CD3 antibody alone (Biological Example 2); type: cell-based, human; settings: T-cell, fold change over baseline, primary human total T-cells, read-out: IL-2 secretion Anti-CD3 stimulation; for fold induction at 1 µM: 1 μM Cbl-b inhibitor; for fold induction at 8 µM: 8 μM Cbl-b inhibitor

Sequence of Cbl-b (Q13191 36-427): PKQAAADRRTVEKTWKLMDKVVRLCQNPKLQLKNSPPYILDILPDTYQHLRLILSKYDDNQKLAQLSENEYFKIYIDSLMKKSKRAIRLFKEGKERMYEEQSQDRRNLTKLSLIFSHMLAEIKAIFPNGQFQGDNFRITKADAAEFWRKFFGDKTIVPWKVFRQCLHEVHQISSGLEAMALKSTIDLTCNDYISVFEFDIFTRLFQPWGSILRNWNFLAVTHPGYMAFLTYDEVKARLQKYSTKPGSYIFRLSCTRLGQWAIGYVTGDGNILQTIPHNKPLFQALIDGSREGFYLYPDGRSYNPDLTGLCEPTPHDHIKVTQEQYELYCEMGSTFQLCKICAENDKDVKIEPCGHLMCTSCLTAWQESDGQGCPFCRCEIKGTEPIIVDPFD

SMILES	IC50 (Cbl-b) [nM]	fold induction at 0.3 µM (T-cell [1])	fold induction at 1 µM (T-cell [1])	fold induction at 4 µM (T-cell [1])	fold induction at 1 µM (T-cell [2])	fold induction at 8 µM (T-cell [2])
C[C@H](Sc1nncn1C)c1cccc(N2Cc3c(ccnc3Cl)C2=O)c1 [Compound 167, 4-chloro-2-[3-[(1S)-1-[(4-methyl-1,2,4-triazol-3-yl)sulfanyl]ethyl]phenyl]-3H-pyrrolo[3,4-c]pyridin-1-one]	≤ 500	1.51 to 1.75	1.01 to 1.3	> 1.76	< 0.05	0.101 to 0.15
C[C@H](Sc1nncn1C)c1cccc(NC(=O)c2cncc(C(F)(F)F)n2)c1 [Compound 77, N-[3-[(1S)-1-[(4-methyl-1,2,4-triazol-3-yl)sulfanyl]ethyl]phenyl]-6-(trifluoromethyl)pyrazine-2-carboxamide]	≤ 500	< 1	1.01 to 1.3	1.01 to 1.3	< 0.05	< 0.05
Cc1nc2cc([C@H](C)Sc3nncn3C)cc(NC(=O)c3cccc(C(F)(F)F)n3)c2o1 [Compound 130a, (S)-N-(2-methyl-5-(1-((4-methyl-4H-1,2,4-triazol-3-yl)thio)ethyl)benzo[d]oxazol-7-yl)-6-(trifluoromethyl)picolinamide]	≤ 1000	1.31 to 1.5	1.51 to 1.75	> 1.76	< 0.05	> 0.201
CC(C)c1cccc(C(=O)Nc2cccc([C@H](C)Sc3nncn3C)c2)n1 [Compound 33, (S)-6-Isopropyl-N-(3-(1-((4-methyl-4H-1,2,4-triazol-3-yl)thio)ethyl)phenyl)picolinamide]	≤ 500	1.01 to 1.3	1.01 to 1.3	1.01 to 1.3	< 0.05	< 0.05
Cc1cc(C(=O)Nc2cc([C@H](C)Sc3nncn3C)ccn2)nc(C(F)(F)F)c1 [Compound 103, (S)-4-methyl-N-(4-(1-((4-methyl-4H-1,2,4-triazol-3-yl)thio)ethyl)pyridin-2-yl)-6-(trifluoromethyl)picolinamide]	≤ 1000	< 1	< 1	1.01 to 1.3	< 0.05	0.051 to 0.1
COc1nc(C(=O)Nc2cccc([C@H](C)Sc3nncn3C)c2)cc2ccccc12 [Compound 62, (S)-1-methoxy-N-(3-(1-((4-methyl-4H-1,2,4-triazol-3-yl)thio)ethyl)phenyl)isoquinoline-3-carboxamide]	≤ 500	< 1	1.01 to 1.3	1.01 to 1.3	< 0.05	0.051 to 0.1
Cc1cc(C(=O)Nc2cccc([C@H](C)Sc3nncn3C)c2)nc2ccccc12 [Compound 30, (S)-4-Methyl-N-(3-(1-((4-methyl-4H-1,2,4-triazol-3-yl)thio)ethyl)phenyl)quinoline-2-carboxamide]	≤ 500	1.01 to 1.3	1.01 to 1.3	1.01 to 1.3	0.051 to 0.1	0.101 to 0.15
C[C@H](Cc1nncn1C)c1cc(N[C@@H]2CCOC2)nc(N2Cc3c(cccc3C(F)(F)F)C2=O)c1 (stereo in doubt) [Compound 362, 2-(4-((R)-1-(4-methyl-4H-1,2,4-triazol-3-yl)propan-2-yl)-6-((S)-THF-3-ylamino)pyridin-2-yl)-4-(trifluoromethyl)isoindolin-1-one]	≤ 300	< 1	1.01 to 1.3	1.01 to 1.3	0.051 to 0.1	0.101 to 0.15
C[C@H](Sc1nncn1C)c1ccnc(N2Cc3c(cccc3C(F)(F)F)C2=O)c1 [Compound 172a, (S)-(4-(1-((4-methyl-4H-1,2,4-triazol-3-yl)thio)ethyl)pyridin-2-yl)-4-(trifluoromethyl)isoindolin-1-one]	≤ 1000	< 1	< 1	< 1	< 0.05	< 0.05
Cn1cnnc1[C@@H]1C[C@@H]1c1cccc(NC(=O)c2nc3c(C(F)(F)F)cccc3[nH]2)c1 [Compound 332, N-(3-((1S,2R)-2-(4-methyl-4H-1,2,4-triazol-3-yl)cyclopropyl)phenyl)-4-(trifluoromethyl)-1H-benzo[d]imidazole-2-carboxamide]	≤ 300	1.01 to 1.3	1.01 to 1.3	1.01 to 1.3	0.101 to 0.15	> 0.201
Cn1cnnc1[C@@H]1CC[C@@H]1c1cccc(N2Cc3c(cccc3C(F)(F)F)C2=O)c1 [Compound 283b, 2-(3-((1S,2R)-2-(4-methyl-4H-1,2,4-triazol-3-yl)cyclobutyl)phenyl)-4-(trifluoromethyl)isoindolin-1-one]	≤ 500	1.01 to 1.3	1.01 to 1.3	1.01 to 1.3	0.101 to 0.15	> 0.201
C[C@H](Cc1nncn1C)c1ccnc(N2Cc3c(cccc3C(F)(F)F)C2=O)c1 [Compound 304b, (R)-2-(4-(1-(4-methyl-4H-1,2,4-triazol-3-yl)propan-2-yl)pyridin-2-yl)-4-(trifluoromethyl)isoindolin-1-one]	≤ 500	1.01 to 1.3	1.01 to 1.3	1.31 to 1.5	< 0.05	< 0.05
C[C@H](Cc1nncn1C1CC1)c1cccc(N2Cc3c(cccc3C(F)(F)F)C2=O)c1 [Compound 265, (R)-2-(3-(1-(4-cyclopropyl-4H-1,2,4-triazol-3-yl)propan-2-yl)phenyl)-4-(trifluoromethyl)isoindolin-1-one]	≤ 1000	1.01 to 1.3	1.01 to 1.3	1.01 to 1.3	< 0.05	< 0.05
COc1cc(C(=O)Nc2cccc([C@H](C)Sc3nncn3C)c2)nc(C(F)(F)F)c1 [Compound 71, (S)-4-methoxy-N-(3-(1-((4-methyl-4H-1,2,4-triazol-3-yl)thio)ethyl)phenyl)-6-(trifluoromethyl)picolinamide]	≤ 500	1.01 to 1.3	1.51 to 1.75	> 1.76	0.051 to 0.1	> 0.201
Cc1[nH]cnc1CC(C)c1cccc(N2Cc3c(cccc3C(F)(F)F)C2=O)c1 (stereo not drawn) [Compound 272, 2-[3-[1-(5-methyl-1H-imidazol-4-yl)propan-2-yl]phenyl]-4-(trifluoromethyl)isoindolin-1-one]	≤ 500	< 1	< 1	1.01 to 1.3	0.101 to 0.15	0.101 to 0.15
Cc1ccc(C(=O)Nc2cc([C@H](C)Sc3nncn3C)ccn2)nc1C1CC1 [Compound 113, (S)-6-cyclopropyl-5-methyl-N-(4-(1-((4-methyl-4H-1,2,4-triazol-3-yl)thio)ethyl)pyridin-2-yl)picolinamide]	≤ 1000	< 1	< 1	1.01 to 1.3	< 0.05	< 0.05

Reference: patent publication US20220324835A1 (Nurix Therapeutics, Inc., priority 2018, published 2022)
